This is an account of results in publication PMC9611887, “Chitosan as a Functional Carrier for the Local Delivery Anti-Inflammatory Systems Containing Scutellariae baicalensis radix Extract” (Pharmaceutics, 2022).

For this experiment, the target named is T1, hyaluronidase.
T1 construct: gene SPAM1
Description: turbidimetric assay, CTAB precipitation of undigested hyaluronic acid, absorbance […] nm. It is filed as biochemical. To be noted: hyaluronic acid 0.3 mg/mL, acetate buffer pH 4.5, bovine albumin and NaCl present, 37 °C, 10 min preincubation, 45 min reaction.

On to `O=C(O)[C@H]1O[C@@H](Oc2cc3oc(-c4ccccc4)cc(=O)c3c(O)c2O)[C@H](O)[C@@H](O)[C@@H]1O` [Baicalin], for which the “Ability to Inhibit the Enzyme Hyaluronidase IC50” value was found to be 1210 ± 60 µg/mL.
